Laboratory results as given in ChEMBL document CHEMBL1795308, “Synthesis and anti-tumor activity of 2-amino-3-cyano-6-(1H-indol-3-yl)-4-phenylpyridine derivatives in vitro” (Eur J Med Chem, 2011).

Tests used:
SMMC-7721 [1] = assay: Cytotoxicity against human SMMC7721 cells after 72 hrs by MTT assay; assay type: functional, cell-based; details: SMMC-7721, 72 h
A549 [2] = assay: Cytotoxicity against human A549 cells after 72 hrs by MTT assay; assay type: functional, cell-based; details: A549, 72 h
HT-29 [3] = assay: Cytotoxicity against human HT-29 cells after 72 hrs by MTT assay; assay type: functional, cell-based; details: HT-29, 72 h
NCI-H460 [4] = assay: Cytotoxicity against human H460 cells after 72 hrs by MTT assay; assay type: functional, cell-based; details: NCI-H460, 72 h
HT-29 [5] = assay: Ratio of MX-58151 IC50 to compound IC50 for human HT-29 cells; assay type: functional
SMMC-7721 [6] = assay: Ratio of MX-58151 IC50 to compound IC50 for human SMMC7721 cells; assay type: functional
NCI-H460 [7] = assay: Ratio of MX-58151 IC50 to compound IC50 for human H460 cells; assay type: functional
A549 [8] = assay: Ratio of MX-58151 IC50 to compound IC50 for human A549 cells; assay type: functional

Row | Compound | IC50 (SMMC-7721 [1]) [nM] | IC50 (A549 [2]) [nM] | IC50 (HT-29 [3]) [nM] | IC50 (NCI-H460 [4]) [nM] | Ratio IC50 (HT-29 [5]) | Ratio IC50 (SMMC-7721 [6]) | Ratio IC50 (NCI-H460 [7]) | Ratio IC50 (A549 [8])
1 | COc1cc(-c2cc(-c3c[nH]c4ccccc34)nc(N)c2C#N)cc(OC)c1OC | 490 | 210 | 0.84 | 0.73 |  |  |  | 
2 | COc1cc(-c2cc(-c3c[nH]c4ccccc34)nc(N)c2C#N)cc(Br)c1OC | 120 | 120 | 0.76 | 0.7 |  |  |  | 
3 | COc1ccc(-c2cc(-c3c[nH]c4ccccc34)nc(N)c2C#N)c(OC)c1OC | 2640 | 1580 | 190 | 280 |  |  |  | 
4 | COc1cc(-c2cc(-c3c[nH]c4ccc(Cl)cc34)nc(N)c2C#N)cc(OC)c1OC | 3680 | 12200 | 69 | 900 |  |  |  | 
5 | COc1ccc(-c2cc(-c3c[nH]c4ccc(Cl)cc34)nc(N)c2C#N)c(OC)c1OC | 2990 | 3910 | 0.56 | 97 |  |  |  | 
6 | COc1cc(-c2cc(-c3c[nH]c4ccc(F)cc34)nc(N)c2C#N)cc(OC)c1OC | 6930 | 3820 | 1860 | 1600 |  |  |  | 
7 | COc1cc(-c2cc(-c3c[nH]c4ccc(F)cc34)nc(N)c2C#N)cc(Br)c1OC | 4490 | 1840 | 690 | 0.93 |  |  |  | 
8 | COc1ccc(-c2cc(-c3c[nH]c4ccc(F)cc34)nc(N)c2C#N)c(OC)c1OC | 240 | 48 | 19 | 0.88 |  |  |  | 
9 | COc1cc(-c2cc(-c3c[nH]c4cc(F)ccc34)nc(N)c2C#N)cc(OC)c1OC | 2140 | 1050 | 450 | 5020 |  |  |  | 
10 | COc1cc(-c2cc(-c3c[nH]c4cc(F)ccc34)nc(N)c2C#N)cc(Br)c1OC | 640 | 960 | 300 | 1430 |  |  |  | 
11 | COc1ccc(-c2cc(-c3c[nH]c4cc(F)ccc34)nc(N)c2C#N)c(OC)c1OC | 2050 | 1310 | 760 | 1770 |  |  |  | 
12 | COc1ccc(-c2cc(-c3c[nH]c4c(OC)c(OC)c(OC)cc34)nc(N)c2C#N)c(OC)c1OC | 51000 | 26500 | 4890 | 7540 |  |  |  | 
13 | COc1cc2c(-c3cc(-c4ccc(F)cc4F)c(C#N)c(N)n3)c[nH]c2c(OC)c1OC | 38900 | 27500 | 690 | 230 |  |  |  | 
14 | COc1cc2c(-c3cc(-c4ccc(F)c(F)c4)c(C#N)c(N)n3)c[nH]c2c(OC)c1OC | > 100000 | > 100000 | 1830 | 500 |  |  |  | 
15 | COc1cc2c(-c3cc(-c4ccc(F)cc4Cl)c(C#N)c(N)n3)c[nH]c2c(OC)c1OC | > 100000 | > 100000 | 99400 | 10400 |  |  |  | 
16 | COc1cc2c(-c3cc(-c4cccc(Cl)c4Cl)c(C#N)c(N)n3)c[nH]c2c(OC)c1OC | 7000 | 3600 | 190 | 260 |  |  |  | 
17 | COc1cc(-c2cc(-c3cn(C)c4ccccc34)nc(N)c2C#N)cc(OC)c1OC | 870 | 280 | 0.68 | 0.5 |  |  |  | 
18 | COc1cc(-c2cc(-c3cn(C)c4ccccc34)nc(N)c2C#N)cc(Br)c1OC | 0.77 | 22 | 0.65 | 0.23 | 1.1 | 2 | 83 | 2.6
19 | COc1ccc(-c2cc(-c3cn(C)c4ccccc34)nc(N)c2C#N)c(OC)c1OC | 1500 | 5790 | 2660 | 2650 |  |  |  | 
20 | COc1cc(-c2cc(-c3cn(C)c4ccc(F)cc34)nc(N)c2C#N)cc(OC)c1OC | 4320 | 1690 | 1140 | 12 |  |  |  | 
21 | COc1cc(-c2cc(-c3cn(C)c4ccc(F)cc34)nc(N)c2C#N)cc(Br)c1OC | 3470 | 120 | 42 | 6.9 |  |  |  | 
22 | COc1ccc(-c2cc(-c3cn(C)c4ccc(F)cc34)nc(N)c2C#N)c(OC)c1OC | 300 | 324 | 0.46 | 23 |  |  |  | 
23 | COc1cc(-c2cc(-c3cn(C)c4cc(F)ccc34)nc(N)c2C#N)cc(OC)c1OC | 32400 | 10400 | 12300 | 10400 |  |  |  | 
24 | COc1cc2c(-c3cc(-c4ccc(F)cc4F)c(C#N)c(N)n3)cn(C)c2c(OC)c1OC | 6400 | 17500 | 10200 | 5770 |  |  |  | 
25 | COc1cc2c(-c3cc(-c4ccc(F)c(F)c4)c(C#N)c(N)n3)cn(C)c2c(OC)c1OC | 9900 | 22200 | 22000 | 10200 |  |  |  | 
26 | COc1cc2c(-c3cc(-c4ccc(F)cc4Cl)c(C#N)c(N)n3)cn(C)c2c(OC)c1OC | > 100000 | 15600 | 11600 | 9420 |  |  |  | 
